# From patent US7550492B2, “Benzo[1,2,5]thiadiazole compounds” (Janssen Pharmaceutica N.V., priority 2003, dated 2009)
# Structures can show the parent of a compound that is named as a salt.
# Experiments:
# CCK2 receptor = target: T1, CCK2 receptor (Homo sapiens, UniProt P32239); experiment: Binding Assay: competition with [125I]-BH-CCK-8S in HEKZFP cell membranes; settings: 60 min at 21±3° C., Cheng-Prusoff
# T1 construct: Membranes were prepared from the HEKZFP cells after induction; endogenous in cells
# T1 sequence (P32239 1-447): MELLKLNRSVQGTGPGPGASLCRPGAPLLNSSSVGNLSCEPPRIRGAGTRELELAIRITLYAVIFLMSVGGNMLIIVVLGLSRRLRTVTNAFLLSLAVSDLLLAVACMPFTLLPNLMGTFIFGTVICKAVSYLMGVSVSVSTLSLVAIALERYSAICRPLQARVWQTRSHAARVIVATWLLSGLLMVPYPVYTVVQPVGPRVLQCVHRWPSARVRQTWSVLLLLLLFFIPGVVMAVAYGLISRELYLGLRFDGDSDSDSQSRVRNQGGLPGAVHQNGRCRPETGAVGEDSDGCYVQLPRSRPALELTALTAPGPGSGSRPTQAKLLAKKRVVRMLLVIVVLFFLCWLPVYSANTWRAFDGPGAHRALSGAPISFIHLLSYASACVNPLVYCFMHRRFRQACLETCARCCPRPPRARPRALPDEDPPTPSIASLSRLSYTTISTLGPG
# Procedure: Zinc Finger Proteins (ZFP) specific for the CCK2R gene were identified by Sangamo Biosciences. The ZFP domain was fused with the herpes simplex virus VP16 activation domain, and the fusion protein was subsequently cloned into the pcDNA3 mammalian expression vector (Invitrogen, San Diego, Calif.). Tet-inducible cell lines expressing the coding region from the ZFP vector were created using the T-REx-293™ cell line (Invitrogen). After 2 weeks of selection in culture medium containing […] Zeocin (Invitrogen), sixty drug-resistant stable clones were isolated and analyzed for ZFP expression as well as CCK2R induction upon addition of doxycycline to the culture medium. The cell line with the most appropriate CCK2R ZFP construct was used in all further assays and was termed the HEKZFP cell line.
# HEKZFP cells were grown in DMEM supplemented with L-glutamine (2 mM), penicillin (50 units/mL) and streptomycin (50 μg/mL) and 10% FBS (v/v). HEKZFP cells were treated with […] doxycycline (Sigma-Aldrich, MO; USA) for 2 days to de-repress the tet-regulated expression of the CCK2 receptor selective zinc finger proteins and were harvested using a rubber cell scraper.
# Membranes were prepared from the HEKZFP cells after induction. Frozen cell pellets (−40° C.) were thawed in 14 mL of buffer A (10 mM HEPES, 130 mM NaCl, 4.7 mM KCl, 5 mM MgCl, 1 mM EGTA and 15.4 mg/100 mL bacitracin at pH 7.2), adapted from E. A. Harper et al. (Br. J. Pharmacol. (1996) 118(7):1717-1726). The thawed pellets were homogenized using a Polytron PT-10 (7×1 s). The homogenates were centrifuged for 5 min at 1500 rpm (600×g), and the resulting pellets were discarded. The supernatants were re-centrifuged in order to collect the receptor-membrane pellets (25 min 15,000 rpm; 39,000×g), which were re-suspended in buffer A.
# All assays were conducted in 96-well plate (GF/B millipore filter plates) using buffer A. For the optimal cell number determination experiments, cells in concentrations ranging from 2.5×10^5 to 12.5×10^5 cells/well were incubated with 20 pM [^125I]-BH-CCK-8S (50 μL 60 pM) solution) in a total volume of 150 μL. Total binding of [^125I]-BH-CCK-8S was determined in the presence of 15 μL of buffer A. Non-specific binding of [^125I]-BH-CCK-8S was determined in the presence of 15 μL of 10 μM YF476, a CCK-2 receptor selective antagonist that is structurally unrelated to the radioligand [^125I]-BH-CCK-8S. The assay preparation was incubated for 1 h at 21±3° C., and then the assay was terminated by rapid filtration of the preparation under reduced pressure. The loaded filters were washed three times using undiluted PBS (100 μL), and then 100 μL of scintillation fluid was added to the filter plate. Bound radioactivity was determined using a Topcount (Packard BioScience, Meriden, Conn.) with a count time of 1 min. From these experiments a cell concentration of 1 pellet in 15 mL of buffer was chosen for use in other assays. To validate the radioligand concentration and incubation time for the assay, saturation and kinetic binding studies were also conducted (see M. F. Morton, The Pharmacological Characterization of Cholecystokinin Receptors in the Human Gastrointestinal Tract. PhD Thesis, University of London, 2000). […] The assay was then terminated according to the procedure outlined above.
# The pKi values were determined using the equation of Y.-C. Cheng and W. H. Prusoff (Biochem. Pharmacol., 1973, 22(23):3099-3108):
# To circumvent problems associated with computer-assisted data analysis of compounds with low affinity, the data obtained in the current study were weighted according to a method described by Morton. In brief, 100% and 0% specific binding were defined independently using total binding and binding obtained in the presence of a high concentration of the reference antagonist, 2-NAP.
Compound,Ki (CCK2 receptor) [nM],pKi (CCK2 receptor),melting point [°C]
"O=C(c1cc2ccccc2cc1NS(=O)(=O)c1cccc2nsnc12)N1CCCCC1 [Example 4, Benzo[1,2,5]thiadiazole-4-sulfonic acid [3-(piperidine-1-carbonyl)-naphthalen-2-yl]-amide]",100,–,–
"O=C(c1ccc([N+](=O)[O-])cc1NS(=O)(=O)c1cccc2nsnc12)N1CCCCC1 [Example 2, Benzo[1,2,5]thiadiazole-4-sulfonic acid [5-nitro-2-(piperidine-1-carbonyl)-phenyl]-amide]",–,6.8,–
"O=C(c1ccc(Cl)cc1NS(=O)(=O)c1cccc2nsnc12)N1CCSC1 [Example 79, Benzo[1,2,5]thiadiazole-4-sulfonic acid [5-chloro-2-(thiazolidine-3-carbonyl)-phenyl]-amide]",–,7.1,–
C[C@@H](NC(=O)c1ccc(Br)cc1NS(=O)(=O)c1cccc2nsnc12)c1ccc(F)cc1F [Example 155],25.1,–,–
"CN(C)CC(c1ccccc1)N(C)C(=O)c1ccc(Cl)cc1NS(=O)(=O)c1cccc2nsnc12 (stereo not drawn) [Example 48, 2-(Benzo[1,2,5]thiadiazole-4-sulfonylamino)-4-chloro-N-(2-dimethylamino-1-phenyl-ethyl)-N-methylbenzamide TFA salt]",398,–,–
"CN(C(=O)c1ccc(Cl)cc1NS(=O)(=O)c1cccc2nsnc12)c1ccccc1 [Example 58, 2-(Benzo[1,2,5]thiadiazole-4-sulfonylamino)-4-chloro-N-methyl-N-phenyl-benzamide]",126,–,–
"CC1CCCCN1C(=O)c1ccc(Cl)cc1NS(=O)(=O)c1cccc2nsnc12 (stereo not drawn) [Example 70, Benzo[1,2,5]thiadiazole-4-sulfonic acid [5-chloro-2-(2-methyl-piperidine-1-carbonyl)-phenyl]-amide]",–,7.5,–
"CCCCNC(=O)c1ccc(Cl)cc1NS(=O)(=O)c1cccc2nsnc12 [Example 59, 2-(Benzo[1,2,5]thiadiazole-4-sulfonylamino)-N-butyl-4-chloro-benzamide]",631,–,–
"O=C(c1ccc(I)cc1NS(=O)(=O)c1cccc2nsnc12)N1CCOCC1 [Example 138, Benzo[1,2,5]thiadiazole-4-sulfonic acid [5-iodo-2-(morpholine-4-carbonyl)-phenyl]-amide]",–,7.5,–
"C[C@H](c1ccccc1)N(C)C(=O)c1ccc(C(F)(F)F)cc1NS(=O)(=O)c1cccc2nsnc12 [Example 195, (R)-2-(Benzo[1,2,5]thiadiazole-4sulfonylamino)-N-methyl-N-(1-phenyl-ethyl)-4-trifluoromethyl-benzamide]",7.94,–,–
"CC(C)c1ccc(C(=O)N2CCCCC2)c(NS(=O)(=O)c2cccc3nsnc23)c1 [Example 37, Benzo[1,2,5]thiadiazole-4-sulfonic acid [5-isopropyl-2-(piperidine-1-carbonyl)-phenyl]-amide]",–,–,125 to 127
"O=C(c1cc(Cl)c(Cl)cc1NS(=O)(=O)c1cccc2nsnc12)N1CCCCC1 [Example 36, Benzo[1,2,5]thiadiazole-4-sulfonic acid [4,5-dichloro-2-(piperidine-1-carbonyl)-phenyl]-amide]",–,7.8,178 to 179
"CN(Cc1ccc(F)cc1F)C(=O)c1ccc(Br)cc1NS(=O)(=O)c1cccc2nsnc12 [Example 111, 2-(Benzo[1,2,5]thiadiazole-4-sulfonylamino)-4-bromo-N-(2,4-difluoro-benzyl)-N-methyl-benzamide]",15.8,–,–
"CC(c1ccc(F)cc1)N(C)C(=O)c1ccc(Br)cc1NS(=O)(=O)c1cccc2nsnc12 (stereo not drawn) [Example 112, 2-(Benzo[1,2,5]thiadiazole-4-sulfonylamino)-4-bromo-N-[1-(4-fluoro-phenyl)-ethyl]-N-methyl-benzamide]",5.01,–,–
"CC(c1ccc(F)cc1)N(C)C(=O)c1ccc(I)cc1NS(=O)(=O)c1cccc2nsnc12 (stereo not drawn) [Example 105, 2-(Benzo[1,2,5]thiadiazole-4-sulfonylamino)-N-[1-(4-fluoro-phenyl)-ethyl]-4-iodo-N-methyl-benzamide]",10,–,–
"C[C@H](c1ccccc1)N(C)C(=O)c1cc(Cl)ccc1NS(=O)(=O)c1cccc2nsnc12 [Example 118, (R)-2-(Benzo[1,2,5]thiadiazole-4-sulfonylamino)-5-chloro-N-methyl-N-(1-phenyl-ethyl)-benzamide]",126,–,–
"CON(C)C(=O)c1ccc(Br)cc1NS(=O)(=O)c1cccc2nsnc12 [Example 117, 2-(Benzo[1,2,5]thiadiazole-4-sulfonylamino)-4-bromo-N-methoxy-N-methyl-benzamide]",398,–,–
"O=C(c1ccc(I)cc1NS(=O)(=O)c1cccc2nsnc12)N1CCCCC1 [Example 6, Benzo[1,2,5]thiadiazole-4-sulfonic acid [5-iodo-2-(piperidine-1-carbonyl)-phenyl]-amide]",3.98,–,–
"O=C(c1ccc(-c2cccs2)cc1NS(=O)(=O)c1cccc2nsnc12)N1CCCCC1 [Example 22, Benzo[1,2,5]thiadiazole-4-sulfonic acid [2-(piperidine-1-carbonyl)-5-thiophen-2-yl-phenyl]-amide]",200,–,–
"Cc1ccc(C(=O)N[C@H](C)c2ccc(F)cc2F)c(NS(=O)(=O)c2cccc3nsnc23)c1 [Example 167, (R)-2-(Benzo[1,2,5]thiadiazole-4-sulfonylamino)-N-[1-(2,4-difluoro-phenyl)-ethyl]-4-methyl-benzamide]",25.1,–,–
